# Results from PMC12090182, “Repurposing of the RIPK1-Selective Benzo[1,4]oxazepin-4-one Scaffold for the Development of a Type III LIMK1/2 Inhibitor” (ACS Chemical Biology, 2025).
# Read-outs that look alike come from different tables or passages of the source.
# System: HEK293T cells
# Type: cell-based
# Conditions: HEK293T
# Procedure, shortened: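 HEK293T and U2OS cells (DMEM) and MRC-9 fibroblasts (EMEM) exposed to compounds at 1 and 10 μM. Live-cell confocal imaging of cell shape and fluorescence before and at 12, 24 and 48 h. Normalized to 0.1% DMSO; biological duplicates with SEM.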
# [1] = 1 µM, 0 h after treatment, biological replicate 1
# [2] = 1 µM, 0 h after treatment, biological replicate 2
# [3] = 1 µM, 12 h after treatment, biological replicate 1
# [4] = 1 µM, 12 h after treatment, biological replicate 2
# [5] = 1 µM, 24 h after treatment, biological replicate 1
# [6] = 1 µM, 24 h after treatment, biological replicate 2
# [7] = 1 µM, 48 h after treatment, biological replicate 1
# [8] = 1 µM, 48 h after treatment, biological replicate 2
# [9] = 10 µM, 0 h after treatment, biological replicate 1
# [10] = 10 µM, 0 h after treatment, biological replicate 2
# [11] = 10 µM, 12 h after treatment, biological replicate 1
# [12] = 10 µM, 12 h after treatment, biological replicate 2
# [13] = 10 µM, 24 h after treatment, biological replicate 1
# [14] = 10 µM, 24 h after treatment, biological replicate 2
# [15] = 10 µM, 48 h after treatment, biological replicate 1
# [16] = 10 µM, 48 h after treatment, biological replicate 2
compound,measurement,setting,value
CC(C)C(=O)Nc1ncc(C(=O)NCCN(Cc2ccccc2)C(=O)c2ccc(S(=O)(=O)Nc3ccccc3)cc2)s1 [TH470],Cell count normalized to cells treated with DMSO control,[1],0.821
same,Cell count per well,[1],245
same,Population Fragmented Nuclei (%),[1],8.67%
same,Population Healthy Nuclei (%),[1],36.73%
same,Population Pyknosed Nuclei (%),[1],54.59%
same,Population apoptotic cell (%),[1],45.79%
same,Population cell that influence microtubule strucutre (%),[1],23.61%
same,Population with increased mitochondrial mass (%),[1],62.50%
same,Population with membrane disruption (%),[1],0.00%
same,Cell count normalized to cells treated with DMSO control,[2],1.084
same,Cell count per well,[2],248
same,Population Fragmented Nuclei (%),[2],6.57%
same,Population Healthy Nuclei (%),[2],60.56%
same,Population Pyknosed Nuclei (%),[2],32.86%
same,Population apoptotic cell (%),[2],65.71%
same,Population cell that influence microtubule strucutre (%),[2],23.26%
same,Population with increased mitochondrial mass (%),[2],77.52%
same,Population with membrane disruption (%),[2],0.00%
same,Cell count normalized to cells treated with DMSO control,[3],0.762
same,Cell count per well,[3],347
same,Population Fragmented Nuclei (%),[3],6.25%
same,Population Healthy Nuclei (%),[3],79.38%
same,Population Pyknosed Nuclei (%),[3],14.38%
same,Population apoptotic cell (%),[3],34.78%
same,Population cell that influence microtubule strucutre (%),[3],27.17%
same,Population with increased mitochondrial mass (%),[3],44.49%
same,Population with membrane disruption (%),[3],0.79%
same,Cell count normalized to cells treated with DMSO control,[4],1.119
same,Cell count per well,[4],392
same,Population Fragmented Nuclei (%),[4],8.45%
same,Population Healthy Nuclei (%),[4],80.85%
same,Population Pyknosed Nuclei (%),[4],10.70%
same,Population apoptotic cell (%),[4],44.74%
same,Population cell that influence microtubule strucutre (%),[4],20.91%
same,Population with increased mitochondrial mass (%),[4],53.66%
same,Population with membrane disruption (%),[4],0.70%
same,Cell count normalized to cells treated with DMSO control,[5],0.7629
same,Cell count per well,[5],463
same,Population Fragmented Nuclei (%),[5],9.77%
same,Population Healthy Nuclei (%),[5],77.91%
same,Population Pyknosed Nuclei (%),[5],12.33%
same,Population apoptotic cell (%),[5],49.06%
same,Population cell that influence microtubule strucutre (%),[5],18.21%
same,Population with increased mitochondrial mass (%),[5],28.66%
same,Population with membrane disruption (%),[5],1.49%
same,Cell count normalized to cells treated with DMSO control,[6],1.065
same,Cell count per well,[6],481
same,Population Fragmented Nuclei (%),[6],9.19%
same,Population Healthy Nuclei (%),[6],81.84%
same,Population Pyknosed Nuclei (%),[6],8.97%
same,Population apoptotic cell (%),[6],42.50%
same,Population cell that influence microtubule strucutre (%),[6],14.25%
same,Population with increased mitochondrial mass (%),[6],34.25%
same,Population with membrane disruption (%),[6],0.55%
same,Cell count normalized to cells treated with DMSO control,[7],0.791
same,Cell count per well,[7],800
same,Population Fragmented Nuclei (%),[7],15.22%
same,Population Healthy Nuclei (%),[7],78.13%
same,Population Pyknosed Nuclei (%),[7],6.65%
same,Population apoptotic cell (%),[7],21.15%
same,Population cell that influence microtubule strucutre (%),[7],12.27%
same,Population with increased mitochondrial mass (%),[7],18.82%
same,Population with membrane disruption (%),[7],1.47%
same,Cell count normalized to cells treated with DMSO control,[8],1.233
same,Cell count per well,[8],842
same,Population Fragmented Nuclei (%),[8],13.32%
same,Population Healthy Nuclei (%),[8],80.63%
same,Population Pyknosed Nuclei (%),[8],6.05%
same,Population apoptotic cell (%),[8],22.00%
same,Population cell that influence microtubule strucutre (%),[8],11.71%
same,Population with increased mitochondrial mass (%),[8],13.96%
same,Population with membrane disruption (%),[8],2.70%
same,Cell count normalized to cells treated with DMSO control,[9],0.9315
same,Cell count per well,[9],278
same,Population Fragmented Nuclei (%),[9],7.95%
same,Population Healthy Nuclei (%),[9],44.77%
same,Population Pyknosed Nuclei (%),[9],47.28%
same,Population apoptotic cell (%),[9],36.28%
same,Population cell that influence microtubule strucutre (%),[9],15.89%
same,Population with increased mitochondrial mass (%),[9],64.49%
same,Population with membrane disruption (%),[9],0.00%
same,Cell count normalized to cells treated with DMSO control,[10],0.9485
same,Cell count per well,[10],217
same,Population Fragmented Nuclei (%),[10],6.86%
same,Population Healthy Nuclei (%),[10],61.76%
same,Population Pyknosed Nuclei (%),[10],31.37%
same,Population apoptotic cell (%),[10],54.69%
same,Population cell that influence microtubule strucutre (%),[10],26.19%
same,Population with increased mitochondrial mass (%),[10],83.33%
same,Population with membrane disruption (%),[10],0.00%
same,Cell count normalized to cells treated with DMSO control,[11],0.7906
same,Cell count per well,[11],360
same,Population Fragmented Nuclei (%),[11],7.79%
same,Population Healthy Nuclei (%),[11],76.01%
same,Population Pyknosed Nuclei (%),[11],16.20%
same,Population apoptotic cell (%),[11],50.00%
same,Population cell that influence microtubule strucutre (%),[11],67.21%
same,Population with increased mitochondrial mass (%),[11],73.77%
same,Population with membrane disruption (%),[11],0.00%
same,Cell count normalized to cells treated with DMSO control,[12],0.8648
same,Cell count per well,[12],303
same,Population Fragmented Nuclei (%),[12],4.80%
same,Population Healthy Nuclei (%),[12],76.38%
same,Population Pyknosed Nuclei (%),[12],18.82%
same,Population apoptotic cell (%),[12],66.67%
same,Population cell that influence microtubule strucutre (%),[12],63.77%
same,Population with increased mitochondrial mass (%),[12],85.02%
same,Population with membrane disruption (%),[12],0.97%
same,Cell count normalized to cells treated with DMSO control,[13],0.6459
same,Cell count per well,[13],392
same,Population Fragmented Nuclei (%),[13],10.66%
same,Population Healthy Nuclei (%),[13],68.30%
same,Population Pyknosed Nuclei (%),[13],21.04%
same,Population apoptotic cell (%),[13],42.47%
same,Population cell that influence microtubule strucutre (%),[13],67.93%
same,Population with increased mitochondrial mass (%),[13],75.53%
same,Population with membrane disruption (%),[13],0.00%
same,Cell count normalized to cells treated with DMSO control,[14],0.6866
same,Cell count per well,[14],310
same,Population Fragmented Nuclei (%),[14],8.92%
same,Population Healthy Nuclei (%),[14],72.12%
same,Population Pyknosed Nuclei (%),[14],18.96%
same,Population apoptotic cell (%),[14],45.10%
same,Population cell that influence microtubule strucutre (%),[14],52.06%
same,Population with increased mitochondrial mass (%),[14],79.38%
same,Population with membrane disruption (%),[14],1.55%
same,Cell count normalized to cells treated with DMSO control,[15],0.5428
same,Cell count per well,[15],549
same,Population Fragmented Nuclei (%),[15],15.79%
same,Population Healthy Nuclei (%),[15],71.54%
same,Population Pyknosed Nuclei (%),[15],12.67%
same,Population apoptotic cell (%),[15],44.62%
same,Population cell that influence microtubule strucutre (%),[15],57.49%
same,Population with increased mitochondrial mass (%),[15],61.58%
same,Population with membrane disruption (%),[15],2.45%
same,Cell count normalized to cells treated with DMSO control,[16],0.5405
same,Cell count per well,[16],369
same,Population Fragmented Nuclei (%),[16],12.20%
same,Population Healthy Nuclei (%),[16],75.00%
same,Population Pyknosed Nuclei (%),[16],12.80%
same,Population apoptotic cell (%),[16],55.81%
same,Population cell that influence microtubule strucutre (%),[16],64.68%
same,Population with increased mitochondrial mass (%),[16],73.81%
same,Population with membrane disruption (%),[16],1.19%
